Measured values reported in patent US7427627B2, “N-(4-(4-methylthiazol-5-yl) pyrimidin-2-yl)-N-phenylamines as antiproliferative compounds” (Cyclacel Limited, priority 2001, dated 2008).
pIC50: −log10 of the molar value. Where two headings read alike, the source gives them in different places.

Columns and labels:
[1] = system: WI38; test: 72-h MTT assay, WI38; format: cell-based; conditions: Homo sapiens, WI-38, 72 h, read-out: 72-h MTT IC50 WI38; Table 3; Foetal lung (non-transformed)
Description: (§1) The compounds from the examples above were subjected to a standard cellular proliferation assay using human tumour cell lines obtained from the ATCC (American Type Culture Collection, 10801 University Boulevard, Manessas, Va. 20110-2209, USA). Standard 72-h MTT (thiazolyl blue; 3-[4,5-dimethylthiazol-2-yl]-2,5-diphenyltetrazolium bromide) assays were performed (Haselsberger, K.; Peterson, D. C.; Thomas, D. G.; Darling, J. L. Anti Cancer Drugs 1996, 7, 331-8; Loveland, B. E.; Johns, T. G.; Mackay, I. R.; Vaillant, F.; Wang, Z. X.; Hertzog, P. J. Biochemistry International 1992, 27, 501-10). In short: cells were seeded into 96-well plates according to doubling time and incubated overnight at 37° C. Test compounds were made up in DMSO and a 1/3 dilution series prepared in 100 μL cell media, added to cells (in triplicates) and incubated for 72 ho at 37° C. MTT was made up as a stock of 5 mg/mL in cell media and filter-sterilised. Media was removed from cells followed by a wash with 200 μL PBS. MTT solution was then added at 20 μL per well and incubated in the dark at 37° C. for 4 h. MTT solution was removed and cells again washed with 200 μL PBS. MTT dye was solubilised with 200 μL per well of DMSO with agitation.

[2] = system: SKUT-1; test: 72-h MTT assay, SKUT-1; format: cell-based; conditions: Homo sapiens, SK-UT-1, 72 h, read-out: 72-h MTT IC50 SKUT-1; Table 3; Leiomyosarcoma
Description: as §1

[3] = system: Lovo; test: 72-h MTT assay, Lovo; format: cell-based; conditions: Homo sapiens, read-out: 72-h MTT IC50 Lovo, Table 3, Colon
Description: as §1

[4] = molecular target: T1, CDK2/cyclin E (Homo sapiens, UniProt P24941); test: Kinase assay CDK2/cyclin E; format: biochemical; conditions: Table 1; read-out: Kinase inhibition, IC50 (μM) CDK2/E
T1 construct: His6

[5] = system: H1299; test: 72-h MTT assay, H1299; format: cell-based; conditions: Homo sapiens, NCI-H1299, 72 h, read-out: 72-h MTT IC50 H1299; Table 3; Lung
Description: as §1

[6] = system: Messa; test: 72-h MTT assay, Messa; format: cell-based; conditions: Homo sapiens, MES-SA, read-out: 72-h MTT IC50 Messa, Table 3, Uterine
Description: as §1

[7] = system: Hs27; test: 72-h MTT assay, Hs27; format: cell-based; conditions: Homo sapiens, HS27, 72 h, read-out: 72-h MTT IC50 Hs27; Table 3; Foreskin fibroblast (non-transformed)
Description: as §1

[8] = system: Hacat; test: 72-h MTT assay, Hacat; format: cell-based; conditions: Homo sapiens, read-out: 72-h MTT IC50 Hacat, Table 3, Skin keratinocytes
Description: as §1

[9] = system: SK-N-MC; test: 72-h MTT assay, SK-N-MC; format: cell-based; conditions: Homo sapiens, read-out: 72-h MTT IC50 SK-N-MC, Table 3, Neuroblastoma
Description: as §1

[10] = system: DU-145; test: 72-h MTT assay, DU-145; format: cell-based; conditions: Homo sapiens, DU-145, 72 h, read-out: 72-h MTT IC50 DU-145; Table 3; Prostate
Description: as §1

[11] = system: HCT-116; test: 72-h MTT assay, HCT-116; format: cell-based; conditions: Homo sapiens, HCT-116, 72 h, read-out: 72-h MTT IC50 HCT-116; Table 3; Colon
Description: as §1

[12] = system: tumour cells; test: 72-h MTT assay, mean over tumour cell lines; format: cell-based; conditions: Homo sapiens, Table 3
Description: as §1

[13] = system: SKUT-1B; test: 72-h MTT assay, SKUT-1B; format: cell-based; conditions: Homo sapiens, Skut1B, read-out: 72-h MTT IC50 SKUT-1B, Table 3, Leiomyosarcoma
Description: as §1

[14] = system: K562; test: 72-h MTT assay, K562; format: cell-based; conditions: Homo sapiens, K562, 72 h, read-out: 72-h MTT IC50 K562; Table 3; Chronic myelogenous leukaemia
Description: as §1

[15] = system: Saos-2; test: 72-h MTT cytotoxicity assay, Saos-2; format: cell-based; conditions: Homo sapiens; for IC50: SAOS-2, read-out: 72-h MTT in vitro IC50 (μM) Saos-2, Table 1, 72 h
Description: as §1

[16] = system: HT29; test: 72-h MTT cytotoxicity assay, HT29; format: cell-based; conditions: Homo sapiens; for IC50: HT-29, read-out: 72-h MTT in vitro IC50 (μM) HT29, Table 1, 72 h
Description: as §1

[17] = system: CCRF-CEM; test: 72-h MTT assay, CCRF-CEM; format: cell-based; conditions: Homo sapiens, read-out: 72-h MTT IC50 CCRF-CEM, Table 3, Leukaemia
Description: as §1

[18] = system: A549; test: 72-h MTT cytotoxicity assay, A549; format: cell-based, human; conditions: Homo sapiens; for IC50: A549, read-out: 72-h MTT in vitro IC50 (μM) A549, Table 1, 72 h
Description: In short: cells were seeded into 96-well plates according to doubling time and incubated overnight at 37° C. Test compounds were made up in DMSO and a 1/3 dilution series prepared in 100 μL cell media, added to cells (in triplicates) and incubated for 72 ho at 37° C. MTT was made up as a stock of 5 mg/mL in cell media and filter-sterilised. Media was removed from cells followed by a wash with 200 μL PBS. MTT solution was then added at 20 μL per well and incubated in the dark at 37° C. for 4 h. MTT solution was removed and cells again washed with 200 μL PBS. MTT dye was solubilised with 200 μL per well of DMSO with agitation.

[19] = system: Messa-Dx5; test: 72-h MTT assay, Messa-Dx5; format: cell-based; conditions: Homo sapiens, MES-SA/Dx5, 72 h, read-out: 72-h MTT IC50 Messa-Dx5; Table 3; Uterine
Description: as §1

[20] = system: HL60; test: 72-h MTT assay, HL60; format: cell-based; conditions: Homo sapiens, HL-60, 72 h, read-out: 72-h MTT IC50 HL60; Table 3; Promyelocytic leukaemia
Description: as §1

[21] = molecular target: CDK4/cyclin D1 (Homo sapiens, UniProt P11802); test: Kinase assay CDK4/cyclin D1;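 note: Enzyme: His6-tagged recombinant human CDK4 produced in baculovirus-infected Sf9 insect cells and purified by metal-chelate chromatography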
[22] = system: AGS; test: 72-h MTT assay, AGS; format: cell-based; conditions: Homo sapiens, read-out: 72-h MTT IC50 AGS, Table 3, Gastric adenocarcinoma
Description: as §1

[23] = system: Hela; test: 72-h MTT assay, Hela; format: cell-based; conditions: Homo sapiens, read-out: 72-h MTT IC50 Hela, Table 3, Cervix
Description: as §1

[24] = system: nci-H460; test: 72-h MTT assay, nci-H460; format: cell-based; conditions: Homo sapiens, NCI-H460, 72 h, read-out: 72-h MTT IC50 nci-H460; Table 3; Lung
Description: as §1

[25] = system: IMR-90; test: 72-h MTT assay, IMR-90; format: cell-based; conditions: Homo sapiens, IMR-90, 72 h, read-out: 72-h MTT IC50 IMR-90; Table 3; Foetal lung fibroblast (non-transformed)
Description: as §1

[26] = molecular target: CDK7-cyclin H-MAT 1 complex (Homo sapiens, UniProt P50613); test: Kinase specificity assay CDK7/H; format: biochemical; conditions: Table 2
[27] = molecular target: stress-activated protein kinase 2a (Homo sapiens, UniProt Q16539); test: Kinase specificity assay SAPK2a; format: biochemical; conditions: Table 2
[28] = molecular target: T2, protein kinase C α (Homo sapiens, UniProt P17252); test: Kinase specificity assay PKCα; format: biochemical; conditions: Table 2
T2 construct: His6
Description: PKCα kinase activity may be measured by the incorporation of radio-labeled phosphate in Histone 3, as described. The reaction mixture (total volume 65 μl) consist of 50 mM Tris-HCl, 1 mM Calcium acetate, 3 mM DTT, 0.03 mg/ml Phosphatidylserine, 2.4 μg/ml PMA, 0.04% NP40, 12 mM Mg/Cl, purified PKCα-100 ng, Histone 3, 0.2 mg/ml, 100 μM ATP, 0.2 μCi [γ-^32P]-ATP. The reaction is carried over 15 min at 37° C. in microplate shaker and is stopped by adding 10 μl 75 mM orthophosphoric acid and placing the plate on ice. 50 μl of the reaction mixture is transferred onto P81 filterplate and after washing off the free radioactive phosphate (3 times with 200 μl 75 mM orthophosphoric acid per well) 50 μl of scintillation liquid (Microscint 40) were added to each well and the radioactivity is measured on Scintillation counter (Topcount, HP).

[29] = molecular target: Ableson tyrosine kinase (Homo sapiens, UniProt P00519); test: Kinase specificity assay Abl; format: biochemical; conditions: Table 2
[30] = molecular target: glycogen synthase kinase 3β (Homo sapiens, UniProt P49841); test: Kinase specificity assay GSK3β; format: biochemical; conditions: Table 2
[31] = molecular target: extracellular-signal-regulated kinase 2 (Homo sapiens, UniProt P28482); test: Kinase specificity assay ERK-2; format: biochemical; conditions: Table 2
[32] = molecular target: p70 ribosomal protein S6 kinase (Homo sapiens, UniProt P23443); test: Kinase specificity assay p70-S6K; format: biochemical; conditions: Table 2
[33] = molecular target: protein kinase B (Homo sapiens, UniProt P31749); test: Kinase specificity assay Akt/PKB; format: biochemical; conditions: Table 2
[34] = molecular target: polo-like kinase 1 (Homo sapiens, UniProt P53350); test: Kinase specificity assay Plk1; format: biochemical; conditions: Table 2
[35] = molecular target: calmodulin-dependent kinase II; conditions: read-out: Kinase specificity IC50 Cam-KII; Table 2

Chain of CDK4/cyclin D1 (P11802 whole entry): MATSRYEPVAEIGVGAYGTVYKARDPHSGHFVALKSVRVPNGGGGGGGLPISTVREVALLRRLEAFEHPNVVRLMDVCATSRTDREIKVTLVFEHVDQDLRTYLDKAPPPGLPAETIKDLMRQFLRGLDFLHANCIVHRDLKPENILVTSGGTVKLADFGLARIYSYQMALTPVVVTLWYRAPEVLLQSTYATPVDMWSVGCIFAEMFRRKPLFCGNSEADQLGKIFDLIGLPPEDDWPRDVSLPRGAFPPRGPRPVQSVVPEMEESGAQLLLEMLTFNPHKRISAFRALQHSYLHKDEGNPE
Chain of CDK4/cyclin D1 (P24385 whole entry partner): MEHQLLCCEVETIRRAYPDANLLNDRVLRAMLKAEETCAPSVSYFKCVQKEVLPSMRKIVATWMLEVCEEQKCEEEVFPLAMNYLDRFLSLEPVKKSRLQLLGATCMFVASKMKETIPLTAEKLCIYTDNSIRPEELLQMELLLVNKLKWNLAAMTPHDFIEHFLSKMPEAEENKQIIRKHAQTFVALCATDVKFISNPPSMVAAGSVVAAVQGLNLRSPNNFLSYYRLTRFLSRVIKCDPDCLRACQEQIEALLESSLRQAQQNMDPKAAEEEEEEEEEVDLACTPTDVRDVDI
Chain of extracellular-signal-regulated kinase 2 (P28482 whole entry): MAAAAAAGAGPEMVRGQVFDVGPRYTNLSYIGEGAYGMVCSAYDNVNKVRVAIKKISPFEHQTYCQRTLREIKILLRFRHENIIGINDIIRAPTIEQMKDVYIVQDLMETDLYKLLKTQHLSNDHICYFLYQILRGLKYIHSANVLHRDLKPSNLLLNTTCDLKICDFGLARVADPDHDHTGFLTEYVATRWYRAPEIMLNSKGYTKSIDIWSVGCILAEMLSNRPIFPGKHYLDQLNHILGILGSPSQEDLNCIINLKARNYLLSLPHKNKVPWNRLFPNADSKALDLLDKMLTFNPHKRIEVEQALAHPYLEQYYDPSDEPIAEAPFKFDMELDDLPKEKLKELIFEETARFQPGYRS
Chain of p70 ribosomal protein S6 kinase (P23443 24-525): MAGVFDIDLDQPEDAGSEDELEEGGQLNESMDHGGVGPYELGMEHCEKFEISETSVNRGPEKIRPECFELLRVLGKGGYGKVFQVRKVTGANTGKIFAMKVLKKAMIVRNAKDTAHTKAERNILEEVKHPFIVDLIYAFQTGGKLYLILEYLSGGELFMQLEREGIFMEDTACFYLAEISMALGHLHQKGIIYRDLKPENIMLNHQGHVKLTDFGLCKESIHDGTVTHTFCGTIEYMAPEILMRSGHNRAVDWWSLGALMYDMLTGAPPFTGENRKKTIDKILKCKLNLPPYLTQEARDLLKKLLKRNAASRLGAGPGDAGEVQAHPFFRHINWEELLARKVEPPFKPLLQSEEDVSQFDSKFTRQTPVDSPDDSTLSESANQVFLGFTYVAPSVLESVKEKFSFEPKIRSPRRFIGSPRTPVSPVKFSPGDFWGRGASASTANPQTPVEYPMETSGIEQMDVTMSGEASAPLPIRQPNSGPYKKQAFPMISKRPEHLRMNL
Chain of protein kinase B (P31749 whole entry): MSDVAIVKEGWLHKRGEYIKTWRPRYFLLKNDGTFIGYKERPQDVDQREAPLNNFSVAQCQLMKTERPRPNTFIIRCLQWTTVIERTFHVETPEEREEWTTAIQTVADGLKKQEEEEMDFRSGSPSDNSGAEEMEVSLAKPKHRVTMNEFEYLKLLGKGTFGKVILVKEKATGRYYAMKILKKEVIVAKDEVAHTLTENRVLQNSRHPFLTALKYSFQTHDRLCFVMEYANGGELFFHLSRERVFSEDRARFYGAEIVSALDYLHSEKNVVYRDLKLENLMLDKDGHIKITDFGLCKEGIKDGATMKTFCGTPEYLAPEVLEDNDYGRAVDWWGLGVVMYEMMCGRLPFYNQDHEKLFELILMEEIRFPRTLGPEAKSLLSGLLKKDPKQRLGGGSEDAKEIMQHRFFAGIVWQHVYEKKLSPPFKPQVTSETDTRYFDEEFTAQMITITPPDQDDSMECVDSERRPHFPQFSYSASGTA
Chain of stress-activated protein kinase 2a (Q16539 whole entry): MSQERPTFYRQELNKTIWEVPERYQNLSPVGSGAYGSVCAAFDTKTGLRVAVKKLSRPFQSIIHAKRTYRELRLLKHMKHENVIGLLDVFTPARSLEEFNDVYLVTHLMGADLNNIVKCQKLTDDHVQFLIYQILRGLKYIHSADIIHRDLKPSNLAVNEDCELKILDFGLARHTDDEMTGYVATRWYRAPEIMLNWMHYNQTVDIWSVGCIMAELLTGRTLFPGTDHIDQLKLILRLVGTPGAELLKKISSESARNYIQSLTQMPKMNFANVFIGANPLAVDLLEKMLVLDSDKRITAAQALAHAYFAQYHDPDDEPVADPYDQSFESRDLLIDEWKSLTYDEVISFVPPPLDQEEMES
Chain of CDK7-cyclin H-MAT 1 complex (P50613 whole entry): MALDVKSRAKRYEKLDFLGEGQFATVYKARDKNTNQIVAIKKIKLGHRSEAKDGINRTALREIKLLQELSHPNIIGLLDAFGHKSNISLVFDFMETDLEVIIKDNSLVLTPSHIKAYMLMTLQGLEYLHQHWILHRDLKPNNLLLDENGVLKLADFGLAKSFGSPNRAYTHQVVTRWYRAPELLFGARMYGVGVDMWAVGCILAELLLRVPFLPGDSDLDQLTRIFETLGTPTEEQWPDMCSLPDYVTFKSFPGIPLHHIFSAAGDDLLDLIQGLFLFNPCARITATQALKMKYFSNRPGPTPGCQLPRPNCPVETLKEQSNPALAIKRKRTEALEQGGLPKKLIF
Chain of CDK7-cyclin H-MAT 1 complex (P51946 whole entry partner): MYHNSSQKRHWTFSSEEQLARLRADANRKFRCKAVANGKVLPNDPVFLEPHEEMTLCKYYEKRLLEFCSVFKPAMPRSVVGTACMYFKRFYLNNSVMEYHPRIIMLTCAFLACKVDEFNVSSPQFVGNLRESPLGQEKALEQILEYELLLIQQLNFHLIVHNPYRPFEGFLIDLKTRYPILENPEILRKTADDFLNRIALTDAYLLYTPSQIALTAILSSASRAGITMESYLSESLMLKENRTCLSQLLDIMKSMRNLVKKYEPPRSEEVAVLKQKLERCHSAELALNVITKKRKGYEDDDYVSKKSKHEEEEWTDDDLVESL
Chain of CDK7-cyclin H-MAT 1 complex (P51948 whole entry partner): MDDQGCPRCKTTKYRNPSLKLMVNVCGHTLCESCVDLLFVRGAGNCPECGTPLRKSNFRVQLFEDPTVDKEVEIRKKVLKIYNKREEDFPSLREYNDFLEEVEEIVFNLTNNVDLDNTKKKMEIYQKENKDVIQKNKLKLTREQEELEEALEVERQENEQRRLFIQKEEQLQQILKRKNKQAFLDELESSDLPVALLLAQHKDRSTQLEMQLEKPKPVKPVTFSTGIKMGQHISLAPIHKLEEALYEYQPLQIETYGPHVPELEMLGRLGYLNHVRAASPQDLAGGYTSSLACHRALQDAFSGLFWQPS
Chain of glycogen synthase kinase 3β (P49841 whole entry): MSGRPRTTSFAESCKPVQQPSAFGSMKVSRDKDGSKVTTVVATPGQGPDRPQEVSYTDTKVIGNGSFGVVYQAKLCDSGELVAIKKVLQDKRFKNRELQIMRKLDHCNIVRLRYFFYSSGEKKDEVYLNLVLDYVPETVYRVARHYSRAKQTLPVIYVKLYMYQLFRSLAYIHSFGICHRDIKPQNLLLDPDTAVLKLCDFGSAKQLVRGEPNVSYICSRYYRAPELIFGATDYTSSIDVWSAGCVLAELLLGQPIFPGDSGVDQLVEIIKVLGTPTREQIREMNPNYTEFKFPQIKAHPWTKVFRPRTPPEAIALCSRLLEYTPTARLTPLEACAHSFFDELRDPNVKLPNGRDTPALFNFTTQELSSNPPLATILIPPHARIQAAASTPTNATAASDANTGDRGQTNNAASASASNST
Chain of Ableson tyrosine kinase (P00519 whole entry): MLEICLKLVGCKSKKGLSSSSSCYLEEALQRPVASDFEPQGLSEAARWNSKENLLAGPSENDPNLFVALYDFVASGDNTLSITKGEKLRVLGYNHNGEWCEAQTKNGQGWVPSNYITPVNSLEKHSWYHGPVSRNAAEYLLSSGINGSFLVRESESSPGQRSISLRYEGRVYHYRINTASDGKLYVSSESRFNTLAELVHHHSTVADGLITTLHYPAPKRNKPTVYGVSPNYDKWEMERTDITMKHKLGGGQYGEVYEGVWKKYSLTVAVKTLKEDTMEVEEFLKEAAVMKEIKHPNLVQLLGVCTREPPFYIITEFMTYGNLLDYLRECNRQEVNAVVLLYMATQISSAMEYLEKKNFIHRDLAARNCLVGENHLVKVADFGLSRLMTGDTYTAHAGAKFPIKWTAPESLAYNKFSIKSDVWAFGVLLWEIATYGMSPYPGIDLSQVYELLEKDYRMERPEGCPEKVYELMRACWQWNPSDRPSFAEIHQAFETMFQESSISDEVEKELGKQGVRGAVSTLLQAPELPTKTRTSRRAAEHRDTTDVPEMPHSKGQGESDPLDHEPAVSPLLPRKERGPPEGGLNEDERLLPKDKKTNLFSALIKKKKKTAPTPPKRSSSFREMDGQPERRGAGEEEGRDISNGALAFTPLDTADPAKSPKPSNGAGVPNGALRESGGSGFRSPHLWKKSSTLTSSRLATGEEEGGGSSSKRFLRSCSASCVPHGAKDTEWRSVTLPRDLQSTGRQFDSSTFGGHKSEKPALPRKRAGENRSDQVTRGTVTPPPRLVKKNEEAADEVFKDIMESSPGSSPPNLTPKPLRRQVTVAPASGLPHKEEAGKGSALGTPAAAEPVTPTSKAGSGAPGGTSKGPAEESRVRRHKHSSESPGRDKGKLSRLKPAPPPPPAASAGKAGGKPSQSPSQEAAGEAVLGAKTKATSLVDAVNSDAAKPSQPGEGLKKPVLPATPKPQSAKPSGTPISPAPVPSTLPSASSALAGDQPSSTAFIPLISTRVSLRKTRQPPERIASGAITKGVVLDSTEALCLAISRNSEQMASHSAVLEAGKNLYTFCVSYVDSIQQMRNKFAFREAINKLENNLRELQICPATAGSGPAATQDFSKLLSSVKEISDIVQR

Cc1nc(N)sc1-c1ccnc(Nc2cccc(Br)c2)n1 [Compound 16, [4-(2-Amino-4-methyl-thiazol-5-yl)-pyrimidin-2-yl]-(3-bromo-phenyl)-amine]
pIC50 [1]: < 5.30
pIC50 [2]: 6.19
pIC50 [3]: 6.68
IC50 [4]: 0.09 µM
pIC50 [5]: 5.97
pIC50 [6]: 6.23
pIC50 [7]: < 5.30
pIC50 [8]: 6.30
pIC50 [9]: 6.38
pIC50 [10]: 5.76
pIC50 [11]: 6.02
pIC50 [12]: 6.17
pIC50 [13]: 6.52
pIC50 [14]: 6.27
pIC50 ([15]; SAOS-2, 72 h, read-out: 72-h MTT IC50 Saos-2, Table 3, Bone osteosarcoma): 6.14
IC50 [15]: 0.81 µM
pIC50 ([16]; HT-29, 72 h, read-out: 72-h MTT IC50 HT29, Table 3, Colon): 6.60
IC50 [16]: 0.66 µM
pIC50 [17]: 6.30
pIC50 ([18]; A549, 72 h, read-out: 72-h MTT IC50 A549, Table 3, Lung): 5.88
IC50 [18]: 0.82 µM
pIC50 [19]: 6.23
pIC50 [20]: 6.37
pIC50 [21]: 5.75
pIC50 [22]: 5.95
pIC50 [23]: 6.25
pIC50 [24]: 6.55
pIC50 [25]: < 5.30

Cc1nc(C)c(-c2ccnc(Nc3ccc(N(C)C)c(Cl)c3)n2)s1 [Compound 26, 2-[N-(4-N,N-Dimethylamino-3-chlorophenyl)]-4-(2,4-dimethylthiazol-5-yl)-pyrimidineamine]
pIC50 [26]: 5.32
pIC50 [27]: 4.07
pIC50 [28]: 4.62
pIC50 [29]: 5.80
pIC50 [30]: 5.66
IC50 [15]: 0.32 µM
pIC50 [31]: 4.70
IC50 [16]: 0.15 µM
IC50 [18]: 0.29 µM
pIC50 [32]: 4.49
pIC50 [33]: 5.20
pIC50 [34]: < 4.00
pIC50 [35]: 4.16

Cc1ccc(Nc2nccc(-c3sc(=O)n(C)c3C)n2)cc1I [Compound 40, 5-[2-(3-Iodo-4-methyl-phenylamino)-pyrimidin-4-yl]-3,4-dimethyl-3H-thiazol-2-one]
IC50 [4]: 0.7 µM
IC50 [15]: 22 µM
IC50 [16]: 7.74 µM
IC50 [18]: 6.63 µM
IC50 ([21]; read-out: Kinase inhibition, IC50 (μM) CDK4/D1, Table 1): 3.98 µM

Cc1nc(NS(C)(=O)=O)sc1-c1ccnc(Nc2cccc([N+](=O)[O-])c2)n1 [Compound 56, N-{4-Methyl-5-[2-(3-nitro-phenylamino)-pyrimidin-4-yl]-thiazol-2-yl}-methane sulfonamide]
IC50 [4]: 0.01 µM
IC50 [15]: 0.16 µM
IC50 [16]: 0.17 µM
IC50 [18]: 0.1 µM
pIC50 [21]: 5.95

Cc1nc(NCCO)sc1-c1ccnc(Nc2cccc([N+](=O)[O-])c2)n1 [Compound 58, 2-{4-Methyl-5-[2-(3-nitro-phenylamino)-pyrimidin-4-yl]-thiazol-2-ylamino}-ethanol]
IC50 [4]: 0.004 µM
IC50 [15]: 0.06 µM
IC50 [16]: 0.09 µM
IC50 [18]: 0.01 µM
pIC50 [21]: 6.96

Cc1nc(NC(=O)CCl)sc1-c1ccnc(Nc2cccc([N+](=O)[O-])c2)n1 [Compound 60, 2-Chloro-N-{4-methyl-5-[2-(3-nitro-phenylamino)-pyrimidin-4-yl]-thiazol-2-yl}-acetamide]
IC50 [4]: 0.07 µM
IC50 [15]: 0.21 µM
IC50 [16]: 0.25 µM
IC50 [18]: 0.15 µM
pIC50 [21]: 6.07

Cc1nc(NC(=O)CCl)sc1-c1ccnc(Nc2ccc(F)cc2)n1 [Compound 61, 2-Chloro-N-{5-[2-(4-fluoro-phenylamino)-pyrimidin-4-yl]-4-methyl-thiazol-2-yl}-acetamide]
IC50 [4]: 0.23 µM
IC50 [15]: 0.3 µM
IC50 [16]: 0.11 µM
IC50 [18]: 0.33 µM
pIC50 [21]: 6.17
